What was measured:
MRC5 = test: Cytotoxicity against human MRC5 cells assessed as reduction in cell viability after 48 hrs by CCK8 assay; format: cell-based; conditions: MRC5, 48 h
HEK293 = test: Cytotoxicity against human HEK293 cells assessed as reduction in cell viability after 48 hrs by CCK8 assay; format: cell-based; conditions: HEK293, 48 h
A549 = test: Cytotoxicity against human A549 cells assessed as reduction in cell viability after 48 hrs by CCK8 assay; format: functional, cell-based; conditions: A549, 48 h

## Cc1ccc(S(=O)(=O)N2[C@@H](P(=O)(OC(C)C)OC(C)C)[C@]2(C)C#N)cc1 (relative stereo)
MRC5
  IC50: > 50 µM
HEK293
  IC50: > 50 µM
A549
  IC50: 3.4 µM

## Cc1ccc(S(=O)(=O)N2[C@@H](P(=O)(c3ccccc3)c3ccccc3)[C@]2(C)C#N)cc1 (relative stereo)
MRC5
  IC50: > 50 µM
HEK293
  IC50: > 50 µM
A549
  IC50: 3.1 µM

## CC[C@]1(C#N)[C@H](P(=O)(c2ccccc2)c2ccccc2)N1S(=O)(=O)c1ccc(C)cc1 (relative stereo)
MRC5
  IC50: > 50 µM
HEK293
  IC50: 43.2 µM
A549
  IC50: 2.3 µM

## C[C@@]1(C#N)N[C@H]1P(=O)(c1ccccc1)c1ccccc1 (relative stereo)
MRC5
  IC50: > 50 µM
HEK293
  IC50: > 50 µM
A549
  IC50: 2 µM

## COc1cccc2c1C(=O)c1c(O)c3c(c(O)c1C2=O)C[C@@](O)(C(=O)CO)C[C@@H]3O[C@H]1C[C@H](N)[C@H](O)[C@H](C)O1 [DOXORUBICIN]
MRC5
  IC50: > 50 µM

## CCOP(=O)(OCC)[C@@H]1N(S(=O)(=O)c2ccc(C)cc2)[C@]1(C#N)CC (relative stereo)
MRC5
  IC50: > 50 µM
HEK293
  IC50: > 50 µM
A549
  IC50: 4.9 µM

## C[C@]1(C#N)[C@H](P(=O)(c2ccccc2)c2ccccc2)N1C(=O)OCc1ccccc1 (relative stereo)
MRC5
  IC50: > 50 µM
HEK293
  IC50: 30.1 µM
A549
  IC50: 8.1 µM

## CCOP(=O)(OCC)[C@@H]1N(S(=O)(=O)c2ccc(C)cc2)[C@@]1(C)C#N (relative stereo)
MRC5
  IC50: > 50 µM
HEK293
  IC50: > 50 µM

## CC[C@@]1(C#N)N[C@H]1P(=O)(c1ccccc1)c1ccccc1 (relative stereo)
MRC5
  IC50: > 50 µM
HEK293
  IC50: > 50 µM
A549
  IC50: 3.3 µM

## C[C@@]1(C#N)N[C@H]1P(=O)(O)O (relative stereo)
MRC5
  IC50: > 50 µM
HEK293
  IC50: > 50 µM
A549
  IC50: 8.5 µM
